These results are taken from ChEMBL document CHEMBL1255295, “Convergent in vivo and in vitro selection of ceftazidime resistance mutations at position 167 of CTX-M-3 beta-lactamase in hypermutable Escherichia coli strains” (2008).

The subject of experiment [1] is Escherichia coli. Kind of experiment: Antimicrobial activity against Escherichia coli EPI300 harboring pCC1 carrying beta-lactamase CTX-M-3 gene by agar dilution method. Format: functional.
Experiment [2] deals with Escherichia coli. Description: Antimicrobial activity against Escherichia coli EPI300 harboring pCC1 carrying beta-lactamase CTX-M-42 Pro167Thr mutant gene by agar dilution method. Format: functional.
The test system of experiment [3] is Escherichia coli. Kind of experiment: Antimicrobial activity against Escherichia coli EPI300 transformant harboring pCC1 by agar dilution method. Format: functional.
For experiment [4], the system named is Escherichia coli. Kind of experiment: Antimicrobial activity against Escherichia coli AB14156 harboring beta-lactamase CTX-M-42 Pro167Thr mutant gene by agar dilution method. Format: functional.
Experiment [5] deals with Escherichia coli. Description: Antimicrobial activity against Escherichia coli Irk1224 harboring beta-lactamase CTX-M-3 by agar dilution method. Format: functional.
Experiment [6] relates to Escherichia coli. Description: Antimicrobial activity against ceftazidime-resistant Escherichia coli Irk2320 harboring beta-lactamase CTX-M-42 Pro167Thr mutant gene by agar dilution method. Format: functional.
The subject of experiment [7] is Escherichia coli. Description: Antimicrobial activity against ceftazidime-resistant Escherichia coli Irk2322 harboring beta-lactamase CTX-M-42 Pro167Thr mutant gene by agar dilution method. Format: functional.
Experiment [8] has as its system Escherichia coli. Description: Antimicrobial activity against Escherichia coli AB14156 harboring beta-lactamase CTX-M-42 Pro167Thr mutant gene by agar dilution method in presence of beta-lactamase inhibitor clavulanic acid.
The subject of experiment [9] is Escherichia coli. Kind of experiment: Antimicrobial activity against Escherichia coli EPI300 harboring plasmid pCC1 by agar dilution method in presence of beta-lactamase inhibitor clavulanic acid.
The test system of experiment [10] is Escherichia coli. Kind of experiment: Antimicrobial activity against ceftazidime-resistant Escherichia coli Irk2322 harboring beta-lactamase CTX-M-42 Pro167Thr mutant gene by agar dilution method in presence of beta-lactamase inhibitor clavulanic acid.
Experiment [11] concerns Escherichia coli. Description: Antimicrobial activity against Escherichia coli EPI300 harboring pCC1 carrying beta-lactamase CTX-M-42 Pro167Thr mutant gene by agar dilution method in presence of beta-lactamase inhibitor clavulanic acid.
For experiment [12], the system named is Escherichia coli. Kind of experiment: Antimicrobial activity against Escherichia coli Irk1224 harboring beta-lactamase CTX-M-3 by agar dilution method in presence of beta-lactamase inhibitor clavulanic acid.
The subject of experiment [13] is Escherichia coli. Description: Antimicrobial activity against Escherichia coli EPI300 harboring pCC1 carrying beta-lactamase CTX-M-3 by agar dilution method in presence of beta-lactamase inhibitor clavulanic acid.
For experiment [14], the system named is Escherichia coli. Description: Antimicrobial activity against ceftazidime-resistant Escherichia coli Irk2320 harboring beta-lactamase CTX-M-42 Pro167Thr mutant gene by agar dilution method in presence of beta-lactamase inhibitor clavulanic acid.
The subject of experiment [15] is Escherichia coli. Kind of experiment: Antimicrobial activity against Escherichia coli Irk1224 type 3 mutant harboring beta-lactamase CTX-M-3 Lys136 mutant gene by agar dilution method. Format: functional.
Experiment [16] deals with Escherichia coli. Description: Antimicrobial activity against Escherichia coli EPI300 Irk1224 type 1 mutant harboring beta-lactamase CTX-M-3 gene by agar dilution method. Format: functional.
In experiment [17] the test system is Escherichia coli. Kind of experiment: Antimicrobial activity against Escherichia coli EPI300 harboring GM2995 pCC1 carrying beta-lactamase CTX-M-3 gene by agar dilution method. Format: functional.
Experiment [18] relates to Escherichia coli. Kind of experiment: Antimicrobial activity against Escherichia coli GM2995 harboring plasmid pCC1 carrying beta-lactamase CTX-M-3 gene by agar dilution method. Format: functional.
The subject of experiment [19] is Escherichia coli. Kind of experiment: Antimicrobial activity against Escherichia coli EPI300 Irk1224 type 2 mutant harboring beta-lactamase CTX-M-3 Ser167 mutant gene by agar dilution method.
Experiment [20] deals with Escherichia coli. Description: Antimicrobial activity against Escherichia coli EPI300 Irk1224 type 3 mutant harboring CTX-M-3 beta-lactamase Lys136 mutant gene by agar dilution method.
Experiment [21] has as its system Escherichia coli. Description: Antimicrobial activity against Escherichia coli EPI300 harboring GM2995 pCC1 carrying beta-lactamase CTX-M-3 Ser167 mutant gene by agar dilution method.
In experiment [22] the test system is Escherichia coli. Kind of experiment: Antimicrobial activity against Escherichia coli Irk1224 type 2 mutant harboring beta-lactamase CTX-M-3 Ser167 mutant gene by agar dilution method. Format: functional.
Experiment [23] relates to Escherichia coli. Description: Antimicrobial activity against Escherichia coli Irk1224 type 1 mutant harboring beta-lactamase CTX-M-3 by agar dilution method. Format: functional.
Experiment [24] deals with Escherichia coli. Kind of experiment: Antimicrobial activity against Escherichia coli GM2995 harboring plasmid pCC1 carrying beta-lactamase CTX-M-3 Ser167 mutant gene by agar dilution method.
In experiment [25] the test system is Escherichia coli. Kind of experiment: Antimicrobial activity against Escherichia coli EPI300 harboring GM2995 pCC1-1224 carrying CTX-M-3 beta-lactamase gene from by agar dilution method. Format: functional.
Experiment [26] deals with Escherichia coli. Description: Antimicrobial activity against Escherichia coli GM2995 harboring plasmid pCC1 carrying beta-lactamase CTX-M-3 from by agar dilution method. Format: functional.

In brackets after ≈: the same amount, converted by molar mass.

Turning to `CO/N=C(\C(=O)N[C@@H]1C(=O)N2C(C(=O)[O-])=C(C[N+]3(C)CCCC3)CS[C@H]12)c1csc(N)n1`, the MIC was determined as 0.5 µg/mL (≈ 1.04 µM) in the experiment with Escherichia coli [1]; 0.25 µg/mL (≈ 0.52 µM) against Escherichia coli [2]; 0.06 µg/mL (≈ 0.125 µM) in the experiment with Escherichia coli [3]; 1 µg/mL (≈ 2.08 µM) in the experiment on Escherichia coli [4]; 32 µg/mL (≈ 66.6 µM) in the experiment with Escherichia coli [5]; 1 µg/mL (≈ 2.08 µM) against Escherichia coli [6]. The molecule further registered an MIC with Escherichia coli [7] of 1 µg/mL (≈ 2.08 µM).

Take `CC1(C)S[C@@H]2[C@H](NC(=O)[C@H](N)c3ccc(O)cc3)C(=O)N2[C@H]1C(=O)O` [AMOXICILLIN]: the minimum inhibitory concentration (MIC) in the experiment with Escherichia coli [8] stood at 8 µg/mL; in the experiment with Escherichia coli [1], 8 µg/mL (≈ 21.9 µM); in the experiment on Escherichia coli [2] it was 8 µg/mL (≈ 21.9 µM); in the experiment with Escherichia coli [9], 1 µg/mL; in the experiment with Escherichia coli [10], 8 µg/mL; with Escherichia coli [11], 4 µg/mL. For the same molecule, the minimum inhibitory concentration (MIC) was found to be 2 µg/mL (≈ 5.47 µM) with Escherichia coli [3]; 16 µg/mL (≈ 43.8 µM) with Escherichia coli [4]; 32 µg/mL (≈ 87.6 µM) in the experiment on Escherichia coli [5]; 16 µg/mL in the experiment on Escherichia coli [12]; 4 µg/mL in the experiment with Escherichia coli [13]; 16 µg/mL (≈ 43.8 µM) in the experiment on Escherichia coli [6]. The MIC with Escherichia coli [7] was 16 µg/mL (≈ 43.8 µM); with Escherichia coli [14], 8 µg/mL.

As to `CC1(C)S[C@@H]2[C@H](NC(=O)[C@H](N)c3ccccc3)C(=O)N2[C@H]1C(=O)O` [AMPICILLIN], the minimal inhibitory concentration (MIC) in the experiment on Escherichia coli [1], with Escherichia coli [2], against Escherichia coli [15], with Escherichia coli [16], with Escherichia coli [17] and with Escherichia coli [18] was at least 256 µg/mL each time. The minimum inhibitory concentration (MIC) in the experiment with Escherichia coli [4] is at least 256 µg/mL; with Escherichia coli [5], at least 256 µg/mL; against Escherichia coli [19], 128 µg/mL (≈ 366 µM); against Escherichia coli [20], 32 µg/mL (≈ 91.6 µM); in the experiment with Escherichia coli [21], 128 µg/mL (≈ 366 µM); in the experiment on Escherichia coli [22], at least 256 µg/mL. Further, the minimum inhibitory concentration (MIC) with Escherichia coli [23] was at least 256 µg/mL; in the experiment on Escherichia coli [24], 128 µg/mL (≈ 366 µM); in the experiment with Escherichia coli [6], at least 256 µg/mL; with Escherichia coli [25], at least 256 µg/mL; in the experiment with Escherichia coli [7] it was at least 256 µg/mL; against Escherichia coli [26], at least 256 µg/mL.

`CO/N=C(\C(=O)N[C@@H]1C(=O)N2C(C(=O)O)=C(COC(C)=O)CS[C@H]12)c1csc(N)n1` [CEFOTAXIME]: the minimum inhibitory concentration (MIC) in the experiment with Escherichia coli [8] was 4 µg/mL; with Escherichia coli [9], 4 µg/mL; in the experiment on Escherichia coli [15], 64 µg/mL (≈ 141 µM); with Escherichia coli [10] it was 4 µg/mL; in the experiment on Escherichia coli [18], 4 µg/mL (≈ 8.78 µM); with Escherichia coli [11], 4 µg/mL. The MIC against Escherichia coli [19] was 1 µg/mL (≈ 2.2 µM); in the experiment with Escherichia coli [20], 1 µg/mL (≈ 2.2 µM); in the experiment with Escherichia coli [12], 4 µg/mL; in the experiment with Escherichia coli [21], 1 µg/mL (≈ 2.2 µM); in the experiment on Escherichia coli [13] it was 4 µg/mL; with Escherichia coli [22], 64 µg/mL (≈ 141 µM). Further, the MIC in the experiment on Escherichia coli [23] was at least 256 µg/mL; against Escherichia coli [24] it was 1 µg/mL (≈ 2.2 µM); in the experiment with Escherichia coli [26], at least 256 µg/mL; in the experiment with Escherichia coli [14], 4 µg/mL.

Take `CC(C)(O/N=C(\C(=O)N[C@@H]1C(=O)N2C(C(=O)[O-])=C(C[n+]3ccccc3)CS[C@H]12)c1csc(N)n1)C(=O)O` [CEFTAZIDIME]: the MIC with Escherichia coli [8] is 4 µg/mL; in the experiment with Escherichia coli [9], 4 µg/mL; in the experiment on Escherichia coli [15] it was at least 256 µg/mL; against Escherichia coli [16] it was 1 µg/mL (≈ 1.83 µM); in the experiment on Escherichia coli [10], 4 µg/mL; in the experiment on Escherichia coli [17], 1 µg/mL (≈ 1.83 µM). Moreover, the minimal inhibitory concentration (MIC) in the experiment with Escherichia coli [18] turned out to be 1 µg/mL (≈ 1.83 µM); with Escherichia coli [11], 4 µg/mL; in the experiment on Escherichia coli [3] it was 0.25 µg/mL (≈ 0.457 µM); against Escherichia coli [19], 16 µg/mL (≈ 29.3 µM); against Escherichia coli [20] it was 8 µg/mL (≈ 14.6 µM); in the experiment on Escherichia coli [12] it was 4 µg/mL. In addition, the minimum inhibitory concentration (MIC) was 16 µg/mL (≈ 29.3 µM) with Escherichia coli [21]; 4 µg/mL in the experiment with Escherichia coli [13]; at least 256 µg/mL against Escherichia coli [22]; at least 256 µg/mL against Escherichia coli [23]; 32 µg/mL (≈ 58.5 µM) against Escherichia coli [24]; 1 µg/mL (≈ 1.83 µM) in the experiment on Escherichia coli [25]. The MIC in the experiment with Escherichia coli [26] was 32 µg/mL (≈ 58.5 µM); in the experiment with Escherichia coli [14], 4 µg/mL.

On to `CO/N=C(\C(=O)N[C@@H]1C(=O)N2C(C(=O)O)=C(CSc3nc(=O)c(O)nn3C)CS[C@H]12)c1csc(N)n1` [CEFTRIAXONE], for which the MIC with Escherichia coli [1] is 4 µg/mL (≈ 7.21 µM); in the experiment on Escherichia coli [2], 1 µg/mL (≈ 1.8 µM); in the experiment on Escherichia coli [3], 0.06 µg/mL (≈ 0.108 µM); against Escherichia coli [4] it was 8 µg/mL (≈ 14.4 µM); in the experiment with Escherichia coli [5], at least 256 µg/mL; against Escherichia coli [6] it was 8 µg/mL (≈ 14.4 µM). For the same molecule, in the experiment with Escherichia coli [7], the minimum inhibitory concentration (MIC) came out at 8 µg/mL (≈ 14.4 µM).
